How the values were obtained:
[1] = system: GDF15, FGF21, Nf-L, inflammatory cytokines; assay: Nf-L, GDF15, FGF21 and cytokine detection in serum and CSF; assay type: in vivo, human
Protocol: Neurofilament light chain (Nf-L) measurement in CSF and serum samples was carried out in duplicates using the Simoa NF-light Advantage (SR-X) Kit (Quanterix) according to the manufacturer's recommendations and analyzed on an Simoa SR-X instrument (Quanterix). GDF15 and FGF21 detection was carried out using ELISA kits GDF-15/MIC-1 Human ELISA (RD191135200R) and Fibroblast Growth Factor 21 Human ELISA (RD191108200R) from BioVendor according to manufacturer's recommendations. For CSF analyses of GDF15, CSF was diluted 1:2 in dilution buffer. All samples were analyzed twice in duplicates. Inflammatory Cytokine screening was carried out using the Human Cytokine Magnetic 35-plex panel (Invitrogen), detecting FGF-Basic, IL-1 beta, G-CSF, IL-10, IL-13, IL-6, IL-12, RANTES, Eotaxin, IL-17A, MIP-1 alpha, GM-CSF, MIP-1 beta, MCP-1, IL-15, EGF, IL-5, HGF, VEGF, IL-1 alpha, IFN-gamma, IL-17F, IFN-alpha, IL-9, IL-1RA, TNF-alpha, IL-3, IL-2, IL-7, IP-10, IL-2R, IL-22, MIG, IL-4, IL-8. CSF and serum samples were analyzed according to the manufacturer's recommendations and measured on a BioPlex 200 instrument (BioRad).
The between visit change ([visit 2]−[visit 1]) in MDS-UPDRS (total of subsections I-III; and individual subsections I, II and III) was compared between the NR and placebo groups using independent Student's t-test. In addition, the between visit change in MDS-UPDRS (total and subsections) within the NR, MRS-responder, and placebo groups was assessed by paired Student's t-test. For the 31P-MRS analyses, the change in measured metabolites between visit 1 and visit 2 was assessed in the placebo- and NR group using paired Student's t-test. In addition, the between-visit change in NAD/ATP-α was compared between the NR and placebo group by independent Student's t-test. For PET analyses, changes in network scores with treatment were evaluated for each group separately using paired Student's t-tests or permutation tests. Relationships between network values, NAD levels and MDS-UPDRS motor ratings or between treatment-related changes in these variables were evaluated using Pearson's product-moment correlations; Spearman rank-order correlation coefficients were computed for non-normal distributions of the variables. These statistical tests were performed using SPSS (SPSS Inc., Chicago, IL); results were considered significant for p≤0.05 (two-tailed). Metabolite quantification data, Nf-L; GDF15, FGF21 and cytokine data were analyzed by paired sample Wilcoxon test using GraphPad Prism v 6.07.

[2] = system: individuals with Parkinson's disease; assay: High-dose NR safety study in PD (Example 5); assay type: in vivo, human; details: oral NR 3000 mg daily, 4 weeks
Protocol: • To determine the safety of oral NR 3000 mg daily for a period of 4 weeks in individuals with Parkinson's disease (PD). Safety is defined as the absence of NR-associated moderate or severe adverse events (AE).
This is a single center, phase I double blinded, randomized, placebo controlled drug-safety study.
20 patients are included in this study: 10 receiving 3000 mg oral NR and 10 receiving placebo.
Each capsule of NR contains 250 mg of NR. Patients administer orally 6 capsules (1500 mg) two times daily (3000 mg daily total) for the duration of the study (4 weeks). Placebo capsules are administered similarly (6 capsules two times daily). The study medication is to be taken every day during the treatment period, including prior to study visits.
An adverse event (AE) can therefore be any unfavourable and unintended sign (including an abnormal laboratory finding), symptom, or disease temporally associated with the use of a investigational product, whether or not related to the investigational product. The term AE is used to include both serious and non-serious AEs. If an abnormal laboratory value/vital sign is associated with clinical signs and symptoms, the sign/symptom is reported as an AE and the associated laboratory result/vital sign is considered as additional information that must be collected. Only intensity 2 and 3 is registered as AE. […]

patients with ALS = details: de la Rubia et al. 2019; cited from earlier work

For `NC(=O)c1ccc[n+]([C@@H]2O[C@H](CO)[C@@H](O)[C@H]2O)c1` [NR, nicotinamide riboside], the FGF21 in serum ([1]; NR group, visit 2 vs visit 1) was “unchanged”, the “GDF15 levels in CSF (decrease)” value ([1]; NR group, visit 2 vs visit 1) was “not in CSF” and the “GDF15 levels in serum” value ([1]; NR group, visit 2 vs visit 1) was “mild but significant decrease”. For the same molecule, the “neurofilament light chain (Nf-L) levels in serum and CSF” value ([1]; NR group, visit 2 vs visit 1) was “unchanged”, the “levels of several inflammatory cytokines in serum and CSF” value ([1]; NR group, within-group, visit 2 vs visit 1) was “reduced” and the “fold change of serum cytokines that also decreased in placebo, compared between groups” value ([1]; NR vs placebo) was “no significant difference”. For the same molecule, the “adverse events reported throughout the study” value [2] was “no serious adverse events or any adverse events of medical significance” and the “clinical effect in patients with ALS” value (patients with ALS) was “substantial clinical improvement”.

Reference: patent US20240366648A1, “NAD-AUGMENTATION THERAPY FOR PARKINSON'S DISEASE” (Vestlandets Innovasjonsselskap AS (VIS), priority 2021, published 2024)
